Data published in ChEMBL document CHEMBL1201862, “PubChem BioAssay data set” (2004).
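Cells were grown in 96-well plates and exposed to each compound for 48 hours at five concentrations; endpoints were interpolated linearly between bracketing concentrations, or set to the highest concentration if not reached. GI50 marks 50% less growth.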 Calls of active or inactive are those of the source. No stated cut-off is given here; in the data, active = GI50 up to about 1.1 µM and inactive = higher.

Assays:
Assay in all cases: inhibition of tumour cell growth, NCI panel, 48 h
SK-MEL-5 = system: SK-MEL-5
PC-3 = system: PC-3
CAKI-1 = system: CAKI-1
CCRF-CEM = system: CCRF-CEM
U-251 = system: U-251
HOP-92 = system: HOP-92
HCT-15 = system: HCT-15
MDA-N = system: MDA-N
Hs-578T = system: Hs-578T
BT-549 = system: BT-549
MOLT-4 = system: MOLT-4
SF-539 = system: SF-539
NCI-H522 = system: NCI-H522
OVCAR-3 = system: OVCAR-3
OVCAR-4 = system: OVCAR-4
K562 = system: K562
SK-MEL-28 = system: SK-MEL-28
SN12C = system: SN12C
NCI/ADR-RES = system: NCI/ADR-RES
MDA-MB-435 = system: MDA-MB-435
HL-60 = system: HL-60
OVCAR-8 = system: OVCAR-8
IGROV-1 = system: IGROV-1
Malme-3M = system: Malme-3M
HOP-62 = system: HOP-62
NCI-H226 = system: NCI-H226
UO-31 = system: UO-31
MCF7 = system: MCF7
SF-295 = system: SF-295
SNB-75 = system: SNB-75
UACC-257 = system: UACC-257
SK-OV-3 = system: SK-OV-3
A549 = system: A549
786-0 = system: 786-0
HCT-116 = system: HCT-116
HT-29 = system: HT-29
T47D = system: T47D
SF-268 = system: SF-268
UACC-62 = system: UACC-62
MDA-MB-231 = system: MDA-MB-231
RXF 393 = system: RXF 393
SW-620 = system: SW-620
ACHN = system: ACHN
NCI-H460 = system: NCI-H460
RPMI-8226 = system: RPMI-8226
SNB-19 = system: SNB-19
M14 = system: M14
SK-MEL-2 = system: SK-MEL-2
KM12 = system: KM12
COLO 205 = system: COLO 205
TK-10 = system: TK-10
LOX IMVI = system: LOX IMVI
HCC 2998 = system: HCC 2998
SR = system: SR
NCI-H23 = system: NCI-H23
OVCAR-5 = system: OVCAR-5
EKVX = system: EKVX
DU-145 = system: DU-145
A498 = system: A498

Measured: GI50

CC(O)C1(O)C(O)CC(OC2c3cc4c(c(O)c3[C@@H]3C[C@@]2(C)OC32C=c3cc[nH]c3=N2)C(=O)c2cccc(O)c2C4=O)OC1C (some centres undefined)
active: CCRF-CEM 0.34 µM | MOLT-4 0.334 µM | NCI-H522 0.307 µM | OVCAR-3 1.08 µM | K562 0.935 µM | SN12C 0.607 µM | HL-60 0.598 µM | OVCAR-8 0.959 µM | IGROV-1 0.592 µM | Malme-3M 0.938 µM | HOP-62 1.06 µM | NCI-H226 0.701 µM | MCF7 0.762 µM | A549 0.433 µM | 786-0 1.04 µM | HCT-116 0.789 µM | HT-29 0.644 µM | MDA-MB-231 1.06 µM | RXF 393 1.05 µM | SW-620 0.809 µM | ACHN 0.759 µM | NCI-H460 0.401 µM | RPMI-8226 0.948 µM | KM12 1.07 µM | COLO 205 0.697 µM | LOX IMVI 0.555 µM | HCC 2998 1.11 µM | SR 0.287 µM | EKVX 1.11 µM
2.03 µM: HCT-15
inactive: SK-MEL-5 3.06 µM | PC-3 1.23 µM | CAKI-1 1.33 µM | U-251 1.53 µM | HOP-92 1.64 µM | MDA-N 1.81 µM | Hs-578T 1.73 µM | BT-549 5.56 µM | SF-539 1.19 µM | OVCAR-4 2.38 µM | SK-MEL-28 1.7 µM | NCI/ADR-RES 3.44 µM | MDA-MB-435 1.63 µM | UO-31 1.77 µM | SF-295 1.87 µM | SNB-75 1.26 µM | UACC-257 1.48 µM | SK-OV-3 1.75 µM | T47D 3.1 µM | SF-268 1.79 µM | UACC-62 1.31 µM | SNB-19 2.34 µM | M14 1.34 µM | SK-MEL-2 1.6 µM | TK-10 1.71 µM | NCI-H23 1.53 µM | OVCAR-5 3.08 µM | DU-145 1.15 µM | A498 1.29 µM

C=C1C(=O)OC2/C=C(\CO)CC/C=C(\CO)CC(OC(=O)C(C)C)C12 (centres undefined)
3.19 µM: HCT-15
inactive: SK-MEL-5 19 µM | PC-3 16.6 µM | CAKI-1 1.9 µM | CCRF-CEM 2.99 µM | U-251 18.1 µM | HOP-92 1.27 µM | MDA-N 5.68 µM | Hs-578T 19.9 µM | BT-549 7.94 µM | MOLT-4 3.25 µM | SF-539 14.9 µM | NCI-H522 1.56 µM | OVCAR-3 11.6 µM | OVCAR-4 19.4 µM | K562 1.71 µM | SK-MEL-28 6.27 µM | SN12C 13.3 µM | NCI/ADR-RES 17.6 µM | MDA-MB-435 8.75 µM | HL-60 2.87 µM | OVCAR-8 20 µM | IGROV-1 15.7 µM | Malme-3M 2.08 µM | HOP-62 19.2 µM | NCI-H226 16 µM | UO-31 14 µM | MCF7 2.66 µM | SF-295 21.3 µM | SNB-75 16.5 µM | UACC-257 12.2 µM | SK-OV-3 27.2 µM | A549 20.1 µM | 786-0 5.52 µM | HCT-116 7.4 µM | HT-29 14.6 µM | T47D 4.72 µM | SF-268 13.9 µM | UACC-62 14.1 µM | MDA-MB-231 20.1 µM | RXF 393 5.83 µM | SW-620 4.41 µM | ACHN 1.95 µM | NCI-H460 20.9 µM | RPMI-8226 3.37 µM | SNB-19 21.5 µM | M14 7.53 µM | SK-MEL-2 16.5 µM | KM12 18.2 µM | COLO 205 2.16 µM | TK-10 3.94 µM | LOX IMVI 13.5 µM | HCC 2998 20.7 µM | SR 4.79 µM | NCI-H23 19.3 µM | OVCAR-5 15.9 µM | EKVX 16.4 µM | DU-145 12.7 µM | A498 21.6 µM

CCOC(=O)c1cc(-n2nnc3ccccc32)cn1C
> 10 µM: HCT-15
inactive: SK-MEL-5 > 10 µM | PC-3 > 10 µM | CAKI-1 > 10 µM | CCRF-CEM > 10 µM | U-251 > 10 µM | HOP-92 > 10 µM | MDA-N > 10 µM | Hs-578T > 10 µM | BT-549 > 10 µM | MOLT-4 > 10 µM | SF-539 > 10 µM | NCI-H522 > 10 µM | OVCAR-3 > 10 µM | OVCAR-4 > 10 µM | K562 > 10 µM | SK-MEL-28 > 10 µM | SN12C > 10 µM | NCI/ADR-RES > 10 µM | MDA-MB-435 > 10 µM | HL-60 > 10 µM | OVCAR-8 > 10 µM | IGROV-1 > 10 µM | Malme-3M > 10 µM | HOP-62 > 10 µM | NCI-H226 > 10 µM | UO-31 > 10 µM | MCF7 > 10 µM | SF-295 > 10 µM | SNB-75 8.59 µM | UACC-257 > 10 µM | SK-OV-3 > 10 µM | A549 > 10 µM | 786-0 > 10 µM | HCT-116 > 10 µM | HT-29 > 10 µM | T47D > 10 µM | SF-268 > 10 µM | UACC-62 > 10 µM | MDA-MB-231 > 10 µM | RXF 393 > 10 µM | ACHN > 10 µM | NCI-H460 > 10 µM | RPMI-8226 > 10 µM | SNB-19 > 10 µM | M14 > 10 µM | SK-MEL-2 > 10 µM | KM12 > 10 µM | COLO 205 > 10 µM | TK-10 > 10 µM | LOX IMVI > 10 µM | HCC 2998 > 10 µM | SR 1.32 µM | NCI-H23 > 10 µM | OVCAR-5 > 10 µM | EKVX > 10 µM | DU-145 > 10 µM | A498 > 10 µM

Nc1ccc(-c2nc3cc(F)ccc3s2)cc1Cl
inactive: SK-MEL-5 25.5 µM | PC-3 20 µM | CAKI-1 8.67 µM | CCRF-CEM > 22.9 µM | U-251 20 µM | HOP-92 25.5 µM | MDA-N > 100 µM | Hs-578T 27.1 µM | BT-549 8.15 µM | MOLT-4 > 35.6 µM | SF-539 20.2 µM | NCI-H522 20.5 µM | OVCAR-4 17.1 µM | K562 14.8 µM | SK-MEL-28 > 85.5 µM | SN12C 23.3 µM | NCI/ADR-RES 48.9 µM | MDA-MB-435 > 100 µM | HL-60 3.64 µM | OVCAR-8 38.6 µM | Malme-3M 20.1 µM | HOP-62 8.36 µM | UO-31 31.8 µM | SF-295 23.5 µM | SNB-75 20.5 µM | UACC-257 72.6 µM | SK-OV-3 19.1 µM | A549 7.46 µM | 786-0 25.8 µM | SF-268 25.5 µM | UACC-62 39.7 µM | MDA-MB-231 5.08 µM | RXF 393 24 µM | SW-620 > 100 µM | ACHN 1.57 µM | RPMI-8226 > 55.1 µM | SNB-19 32.4 µM | M14 > 85.1 µM | SK-MEL-2 41.1 µM | KM12 8.99 µM | LOX IMVI > 77.4 µM | EKVX 1.17 µM | DU-145 63.2 µM | A498 3.07 µM
active: OVCAR-3 0.049 µM | IGROV-1 < 0.01 µM | NCI-H226 0.109 µM | MCF7 0.0102 µM | HCT-116 0.0782 µM | HT-29 0.692 µM | T47D 0.0615 µM | NCI-H460 0.0364 µM | COLO 205 0.454 µM | TK-10 0.0357 µM | HCC 2998 < 0.01 µM | SR 0.0382 µM | OVCAR-5 0.0219 µM
0.134 µM: HCT-15
